Patent US6492416B1, “4,5-diaryl-3(2H)-furanone derivatives as cyclooxygenase-2 inhibitors” (Pacific Corporation, priority 1999, dated 2002)
≈ marks a conversion by molar mass, not a printed value.

Key:
[1] = molecular target: T1, COX-2 (Mus musculus, UniProt Q05769); test: Evaluation of COX-2 activity: PGE2 formation in aspirin-treated, LPS-stimulated mouse peritoneal macrophages; type: cell-based
T1 sequence (Q05769 18-604): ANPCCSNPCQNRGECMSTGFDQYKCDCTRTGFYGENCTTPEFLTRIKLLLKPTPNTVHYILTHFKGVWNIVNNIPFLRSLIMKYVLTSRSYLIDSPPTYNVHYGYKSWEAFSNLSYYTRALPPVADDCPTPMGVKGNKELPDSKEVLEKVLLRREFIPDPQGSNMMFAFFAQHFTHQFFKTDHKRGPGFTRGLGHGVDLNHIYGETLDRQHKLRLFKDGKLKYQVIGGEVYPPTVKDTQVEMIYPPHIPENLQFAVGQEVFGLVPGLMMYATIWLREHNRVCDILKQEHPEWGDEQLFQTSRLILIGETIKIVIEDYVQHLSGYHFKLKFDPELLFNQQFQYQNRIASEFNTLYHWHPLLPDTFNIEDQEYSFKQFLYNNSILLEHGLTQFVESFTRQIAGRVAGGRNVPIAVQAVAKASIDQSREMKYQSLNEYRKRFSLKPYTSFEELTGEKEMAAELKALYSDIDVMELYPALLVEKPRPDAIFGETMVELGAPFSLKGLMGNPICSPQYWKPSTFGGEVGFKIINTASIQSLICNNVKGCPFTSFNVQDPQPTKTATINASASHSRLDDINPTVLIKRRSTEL
Description: (§1) Evaluation of in vitro COX-2 and COX-1 Activity [J. Pharmacol. Exp. Ther. 166, 96 (1969)]
(§2) The abdominal skin of a C57BL/6 mouse was sanitized with 70% aqueous ethanol, and was removed without damaging the peritoneum. 5 ml of cold phosphate buffer solution (PBS) was then injected into the abdominal cavity. After a minute, the peritoneal fluid containing the macrophages was collected using a syringe and a needle. The collected fluid was centrifuged for 5 min at 1500 rpm to afford pellets of cells. The pellets were then dispersed in the RPMI-1640 culture medium containing 100 units/ml penicillin and 100 μg/ml streptomycin.
The pellets dispersed as above were treated with 500 μM aspirin in order to knock out the activity of the COX-1 enzymes in the cells. The suspension was then diluted with the RPMI-1640 medium to contain 1×10^6 cells/ml. 100 μl of the suspension was added to each well of a 96-well ELISA plate. Then the plate was incubated for 2 hrs at 37° C. under 5% CO2 in order to fix the macrophages onto the plate. The cells, which were not fixed onto the plate were removed by washing with PBS two times. […] The RPMI-1640 medium containing 3% fetal bovine serum albumin was added to each well of the plate, which was followed by stimulation with 10 μg/ml lipopolysaccharide (LPS). […] The LPS-treated suspensions were incubated for 16 hours at 37° C. under 5% CO2 to induce COX-2. Then the culture medium was removed and the macrophages were washed two times with PBS. Then 130 μl RPMI-1640 culture medium was added to each well and the macrophage solutions were incubated at 37° C. for 10 minutes, which was followed by the treatment with 10 μM arachidonic acid and an appropriate amount of compounds of this invention. The plate was incubated for another 10 minutes. The upper solution was collected using a micropipette and was subjected to determination of PGE2 amount in the solution. The amount of PGE2 present in the collected solution was determined either by a known radio-immuno assay or by a known enzyme-immunoassay [Methods in Enzymol. 86, 258 (1982); Methods in Enzymol. 187, 24 (1990)]. The extent of COX-2 inhibition by a compound of the present invention was calculated by assuming, that the amount of PGE2 formed with the treatment of 10 μg/ml arachidonic acid was used is the maximum possible amount of PGE2, and that the amount of PGE2 formed without the treatment of arachidonic acid is the minimum possible amount of PGE2.
(§3) In order to determine IC50 for a compound of this invention, enzymatic activities were measured at multiple concentrations of compounds of this invention around IC50 of the compound. Usually enzymatic activities at 4˜5 concentrations were measured to calculate out IC50 for a compound of this invention.

[2] = molecular target: T2, COX-1 (Mus musculus, UniProt P22437); test: Evaluation of COX-1 activity: PGE2 formation in mouse peritoneal macrophages without aspirin and LPS treatment; type: cell-based
T2 sequence (P22437 27-602): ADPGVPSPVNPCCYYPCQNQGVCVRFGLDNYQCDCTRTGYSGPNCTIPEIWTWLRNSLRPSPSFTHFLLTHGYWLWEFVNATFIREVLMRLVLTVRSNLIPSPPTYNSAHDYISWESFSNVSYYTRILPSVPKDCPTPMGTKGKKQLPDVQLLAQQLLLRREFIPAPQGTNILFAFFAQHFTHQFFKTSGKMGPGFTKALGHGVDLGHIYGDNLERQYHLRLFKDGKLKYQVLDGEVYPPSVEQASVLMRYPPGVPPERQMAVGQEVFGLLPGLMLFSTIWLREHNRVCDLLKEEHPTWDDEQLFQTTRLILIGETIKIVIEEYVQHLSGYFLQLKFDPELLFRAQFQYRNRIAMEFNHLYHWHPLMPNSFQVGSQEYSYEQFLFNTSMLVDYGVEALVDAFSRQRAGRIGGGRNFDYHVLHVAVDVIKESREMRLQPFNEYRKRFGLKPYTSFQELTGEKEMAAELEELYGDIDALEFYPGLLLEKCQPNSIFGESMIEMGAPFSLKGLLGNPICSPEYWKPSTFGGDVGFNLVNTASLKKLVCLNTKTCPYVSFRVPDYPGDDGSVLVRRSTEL
Description: as §1, §2
The pellets dispersed as above were treated with 500 μM aspirin in order to knock out the activity of the COX-1 enzymes in the cells. The suspension was then diluted with the RPMI-1640 medium to contain 1×10^6 cells/ml. 100 μl of the suspension was added to each well of a 96-well ELISA plate. Then the plate was incubated for 2 hrs at 37° C. under 5% CO2 in order to fix the macrophages onto the plate. The cells, which were not fixed onto the plate were removed by washing with PBS two times. The purity of macrophages obtained thereby was confirmed by differential counting. The RPMI-1640 medium containing 3% fetal bovine serum albumin was added to each well of the plate, which was followed by stimulation with 10 μg/ml lipopolysaccharide (LPS). Usually 5×10^5 cells/ml were present by this preparation. The LPS-treated suspensions were incubated for 16 hours at 37° C. under 5% CO2 to induce COX-2. Then the culture medium was removed and the macrophages were washed two times with PBS. Then 130 μl RPMI-1640 culture medium was added to each well and the macrophage solutions were incubated at 37° C. for 10 minutes, which was followed by the treatment with 10 μM arachidonic acid and an appropriate amount of compounds of this invention. The plate was incubated for another 10 minutes. The upper solution was collected using a micropipette and was subjected to determination of PGE2 amount in the solution. The amount of PGE2 present in the collected solution was determined either by a known radio-immuno assay or by a known enzyme-immunoassay [Methods in Enzymol. 86, 258 (1982); Methods in Enzymol. 187, 24 (1990)]. The extent of COX-2 inhibition by a compound of the present invention was calculated by assuming, that the amount of PGE2 formed with the treatment of 10 μg/ml arachidonic acid was used is the maximum possible amount of PGE2, and that the amount of PGE2 formed without the treatment of arachidonic acid is the minimum possible amount of PGE2.
In the evaluation of COX-1 inhibitory activity by a compound of the present invention, the same procedures employed for evaluation of COX-2 activity were employed, except omitting the following two steps: 1) the treatment with aspirin for knockout of COX-1 activity and 2) treatment with LPS for induction of COX-2.
as §3

| SMILES | IC50, μg/ml COX-2 [1] [µg/mL] | IC50, μg/ml COX-1 [2] [µg/mL] | melting point [°C] |
| --- | --- | --- | --- |
| CC(=O)c1cccc(C2=C(c3ccc(S(C)(=O)=O)cc3)OC(C)(C)C2=O)c1 [Example 5, 4-(3-acetylphenyl)-2,2-dimethyl-5-{4-(methylsulfonyl)phenyl}-3(2H)-furanone] | 0.05 (≈ 0.13 µM) | 50 (≈ 130 µM) | 189 to 190 |
| CC1(C)OC(c2ccc(S(C)(=O)=O)cc2)=C(c2cccc([N+](=O)[O-])c2)C1=O [Example 6, 2,2-Dimethyl-5-{4-(methylsulfonyl)phenyl}-4-(3-nitrophenyl)-3(2H)-furanone] | 0.05 (≈ 0.129 µM) | 5 (≈ 12.9 µM) | 158 to 159 |
| CCC1(C)OC(c2ccc(S(C)(=O)=O)cc2)=C(c2ccccc2)C1=O (stereo not drawn) [Example 31, 2-Ethyl-2-methyl-5-{4-(methylsulfonyl)phenyl}-4-phenyl-3(2H)-furanone] | 0.2 (≈ 0.561 µM) | 20 (≈ 56.1 µM) | 115 to 117 |
| CCC1(C)OC(c2ccc(S(N)(=O)=O)cc2)=C(c2ccsc2)C1=O (stereo not drawn) [Example 44, 5-{4-(Aminosulfonyl)phenyl}-2-ethyl-2-methyl-4-(3-thienyl)-3(2H)-furanone] | 0.101 (≈ 0.278 µM) | >10 | 120 to 121 |
| CCC1(C)OC(c2ccc(S(N)(=O)=O)cc2)=C(c2ccc(C(C)=O)cc2)C1=O (stereo not drawn) [Example 45, 4-(4-Acetylphenyl)-5-{4-(aminosulfonyl)phenyl}-2-ethyl-2-methyl-3(2H)-furanone] | 0.01 (≈ 0.025 µM) | 1.07 (≈ 2.68 µM) | 154 to 155 |
| COc1ccccc1C1=C(c2ccc(S(C)(=O)=O)cc2)OC(C)(C)C1=O [Example 64] | 0.1 (≈ 0.268 µM) | 50 (≈ 134 µM) | 109 to 111 |
| CC1(C)OC(c2ccc(S(C)(=O)=O)cc2)=C(c2cccc(N)c2)C1=O [Example 66, 4-(3-aminophenyl)-2,2-dimethyl-5-{4-(methylsulfonyl)phenyl}-3(2H)-furanone] | 0.05 (≈ 0.14 µM) | 50 (≈ 140 µM) | 186 to 187 |
| CC1(C)OC(c2ccc(S(C)(=O)=O)cc2)=C(c2cc(Cl)cc(Cl)c2)C1=O [Example 75] | 0.03 (≈ 0.0729 µM) | 3 (≈ 7.29 µM) | 187 to 188 |
| CC1(C)OC(c2ccc(S(C)(=O)=O)cc2)=C(c2ccc(C(C)(C)C)cc2)C1=O [Example 76] | 0.5 (≈ 1.25 µM) | 50 (≈ 125 µM) | 142 to 143 |
| CC1(C)OC(c2ccc(S(C)(=O)=O)cc2)=C(c2ccc(-c3ccccc3)cc2)C1=O [Example 77] | 0.003 (≈ 0.00717 µM) | 5 (≈ 11.9 µM) | 150 to 153 |
| CC(C)c1cccc(C2=C(c3ccc(S(C)(=O)=O)cc3)OC(C)(C)C2=O)c1 [Example 86] | 0.03 (≈ 0.078 µM) | 30 (≈ 78 µM) | 83 to 84 |
| Cc1ccc(F)cc1C1=C(c2ccc(S(C)(=O)=O)cc2)OC(C)(C)C1=O [Example 94] | 0.05 (≈ 0.134 µM) | 5 (≈ 13.4 µM) | 159 to 160 |
| CCCc1ccc(C2=C(c3ccc(S(C)(=O)=O)cc3)OC(C)(C)C2=O)cc1 [Example 96] | 0.02 (≈ 0.052 µM) | 3 (≈ 7.8 µM) | 99 to 100 |
| CC1(C)OC(c2ccc(S(C)(=O)=O)c(Br)c2)=C(c2cccc(Cl)c2)C1=O [Example 342] | 0.02 (≈ 0.0439 µM) | 30 (≈ 65.8 µM) |  |
| CC1(C)OC(c2ccc(S(C)(=O)=O)c(Br)c2)=C(c2cc(F)ccc2F)C1=O [Example 344] | 0.08 (≈ 0.175 µM) | 200 (≈ 437 µM) |  |
| CC1(C)OC(c2ccc(S(C)(=O)=O)c(Cl)c2)=C(c2ccccc2)C1=O [Example 357, 5-{3-Chloro-4(methylsulfonyl)phenyl}-2,2-dimethyl-4-phenyl-3(2H)-furanone] | 0.05 (≈ 0.133 µM) | 30 (≈ 79.6 µM) |  |
| CCNS(=O)(=O)c1ccc(C2=C(c3ccccc3)C(=O)C(C)(C)O2)cc1Cl [Example 373, 5-{3-Chloro-4-(N-ethylaminosulfonyl)phenyl}-2,2-dimethyl-4-phenyl-3(2H)-furanone] | 0.3 (≈ 0.739 µM) | 600 (≈ 1480 µM) |  |
| Cc1cc(C2=C(c3cc(F)cc(F)c3)C(=O)C(C)(C)O2)ccc1S(C)(=O)=O [Example 382, 4-(3,5-Difluorophenyl)-2,2-dimethyl-5-{3-methyl-4-(methylsulfonyl)phenyl}-3(2H)-furanone] | 0.08 (≈ 0.204 µM) | 200 (≈ 510 µM) |  |
| Cc1cc(C2=C(c3cc(F)cc(F)c3)C(=O)C(C)(C)O2)ccc1S(N)(=O)=O [Example 384, 5-{4-(Aminosulfonyl)-3-methylphenyl}-4-(3-difluorophenyl)-2,2-dimethyl-3(2H)-furanone] | 0.08 (≈ 0.203 µM) | 30 (≈ 76.3 µM) |  |
